According to patent publication US20230295234A1, “ANTIMICROBIAL PEPTIDOMIMETICS” (SPEXIS AG, priority 2020, published 2023):
Peptide text beside a SMILES is read from it.

What was measured:
[1] = test system: Escherichia coli ATCC 25922; conditions: ATCC 25922
Method in brief: (§1)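 Broth microdilution; cation-adjusted MHII; inoculum ~5×10^5 CFU/mL from 0.5 McFarland saline suspension; peptide two-fold serial dilutions; polysorbate 80 0.002% final; peptide stock 1 mg/mL in water.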

[2] = test system: Escherichia coli MCR-1 Af 45; conditions: MCR-1 Af 45
Method in brief: as §1

[3] = test system: Klebsiella pneumoniae SSI3010; conditions: SSI3010
Method in brief: as §1

[4] = test system: human red blood cells (hRBC); assay: Hemolysis of human red blood cells; type: cell-based; conditions: red cells of human, 1 h
Method in brief: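 PBS-washed human red blood cells (20% v/v) were incubated with peptide at 200 μg/mL for 1 h at 37 °C with shaking. Supernatant OD was read at 540 nm after 8-fold dilution. Hemolysis is expressed as percent of the water control.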

SMILES | Escherichia coli ATCC 25922 MIC [1] [mg/L] | Escherichia coli MCR-1 Af 45 MIC [2] [mg/L] | Klebsiella pneumoniae SSI3010 MIC [3] [mg/L] | Hemolysis at 0.2 g/L [4] [%]
CC[C@H](C)[C@H](NC(=O)[C@@H](NC(=O)[C@@H]1CCCN1C(=O)[C@@H](NC(=O)[C@@H]1CCCN1C(=O)[C@H](CCCCN)NC(=O)[C@@H](N)CCCCN)C(C)C)[C@@H](C)CC)C(=O)N[C@@H](Cc1ccc(O)cc1)C(=O)N[C@H]1CSSC(C)(C)[C@@H](C(=O)N[C@@H](CCN)C(=O)N[C@@H](CCCNC(=N)N)C(=O)N[C@@H](Cc2ccc(O)cc2)C(=O)O)NC(=O)[C@H](CCCCN)NC(=O)[C@@H](CCN)NC(=O)[C@H]([C@@H](C)O)NC(=O)[C@H](CCN)NC(=O)[C@H](CCCNC(=N)N)NC(=O)[C@H](CC(N)=O)NC1=O [Example 103] (HELM PEPTIDE1{K.K.P.V.P.I.I.Y.C.N.R.[Dab].T.[NCC[C@@H](N[*:1])C(=O)[*:2]].K.[Pen].[Dab].R.Y}$PEPTIDE1,PEPTIDE1,9:R3-16:R3$$$V2.0) | ≤0.03125 | ≤0.03125 | 0.0625 | 0
CC[C@H](C)[C@H](NC(=O)[C@@H](NC(=O)[C@@H]1CCCN1C(=O)[C@@H](NC(=O)[C@@H]1CCCN1C(=O)[C@H](CCCCN)NC(=O)[C@@H](N)CCCCN)C(C)C)[C@@H](C)CC)C(=O)N[C@@H](Cc1ccc(O)cc1)C(=O)N[C@H]1CSSC[C@@H](C(=O)N[C@@H](CCN)C(=O)N[C@@H](CCCNC(=N)N)C(=O)N[C@@H](Cc2ccc(O)cc2)C(=O)O)NC(=O)[C@H](CCCCN)NC(=O)[C@@H](CCN)NC(=O)[C@H]([C@@H](C)O)NC(=O)[C@H](CCN)NC(=O)CN(CCCNC(=N)N)C(=O)[C@H](CC(N)=O)NC1=O [Example 104] (HELM PEPTIDE1{K.K.P.V.P.I.I.Y.C.N.[N=C(N)NCCCN(CC(=O)[*:2])[*:1]].[Dab].T.[NCC[C@@H](N[*:1])C(=O)[*:2]].K.C.[Dab].R.Y}$PEPTIDE1,PEPTIDE1,9:R3-16:R3$$$V2.0; N-terminus assumed) | 0.25 | 0.125 | 0.125 | 0
CC[C@H](C)[C@H](NC(=O)[C@@H](NC(=O)[C@@H]1CCCN1C(=O)[C@@H](NC(=O)[C@@H]1CCCN1C(=O)[C@H](CCCCN)NC(=O)[C@@H](N)CCCCN)C(C)C)[C@@H](C)CC)C(=O)N[C@@H](Cc1ccc(O)cc1)C(=O)N[C@H]1CSSC[C@@H](C(=O)N[C@@H](CCN)C(=O)N[C@@H](CCCNC(=N)N)C(=O)N[C@@H](Cc2ccc(O)cc2)C(=O)O)NC(=O)[C@H](CCCCN)NC(=O)[C@@H](CCN)NC(=O)[C@H]([C@@H](C)O)NC(=O)CN(CCCCN)C(=O)[C@H](CCCNC(=N)N)NC(=O)[C@H](CC(N)=O)NC1=O [Example 105] (HELM PEPTIDE1{K.K.P.V.P.I.I.Y.C.N.R.[NCCCCN(CC(=O)[*:2])[*:1]].T.[NCC[C@@H](N[*:1])C(=O)[*:2]].K.C.[Dab].R.Y}$PEPTIDE1,PEPTIDE1,9:R3-16:R3$$$V2.0) | 0.125 | 0.0625 | 0.125 | 0
CC[C@H](C)[C@H](NC(=O)[C@@H](NC(=O)[C@@H]1CCCN1C(=O)[C@@H](NC(=O)[C@@H]1CCCN1C(=O)[C@H](CCCCN)NC(=O)[C@@H](N)CCCCN)C(C)C)[C@@H](C)CC)C(=O)N[C@@H](Cc1ccc(O)cc1)C(=O)N[C@H]1CSSC[C@@H](C(=O)N[C@@H](CCN)C(=O)N[C@@H](CCCNC(=N)N)C(=O)N[C@@H](Cc2ccc(O)cc2)C(=O)O)NC(=O)[C@H](CCCCN)NC(=O)[C@@H](CCN)NC(=O)[C@H]([C@@H](C)O)NC(=O)CN(CCCN)C(=O)[C@H](CCCNC(=N)N)NC(=O)[C@H](CC(N)=O)NC1=O [Example 106] (HELM PEPTIDE1{K.K.P.V.P.I.I.Y.C.N.R.[NCCCN(CC(=O)[*:2])[*:1]].T.[NCC[C@@H](N[*:1])C(=O)[*:2]].K.C.[Dab].R.Y}$PEPTIDE1,PEPTIDE1,9:R3-16:R3$$$V2.0; N-terminus assumed) | 0.25 | 0.125 | 0.125 | 0
